For the assay, the target named is ROCK2 (human) (UniProt O75116). In words: Inhibition of ROCK2 Kinase Activity.
Chain of ROCK2 (human) (O75116 whole entry, looked up): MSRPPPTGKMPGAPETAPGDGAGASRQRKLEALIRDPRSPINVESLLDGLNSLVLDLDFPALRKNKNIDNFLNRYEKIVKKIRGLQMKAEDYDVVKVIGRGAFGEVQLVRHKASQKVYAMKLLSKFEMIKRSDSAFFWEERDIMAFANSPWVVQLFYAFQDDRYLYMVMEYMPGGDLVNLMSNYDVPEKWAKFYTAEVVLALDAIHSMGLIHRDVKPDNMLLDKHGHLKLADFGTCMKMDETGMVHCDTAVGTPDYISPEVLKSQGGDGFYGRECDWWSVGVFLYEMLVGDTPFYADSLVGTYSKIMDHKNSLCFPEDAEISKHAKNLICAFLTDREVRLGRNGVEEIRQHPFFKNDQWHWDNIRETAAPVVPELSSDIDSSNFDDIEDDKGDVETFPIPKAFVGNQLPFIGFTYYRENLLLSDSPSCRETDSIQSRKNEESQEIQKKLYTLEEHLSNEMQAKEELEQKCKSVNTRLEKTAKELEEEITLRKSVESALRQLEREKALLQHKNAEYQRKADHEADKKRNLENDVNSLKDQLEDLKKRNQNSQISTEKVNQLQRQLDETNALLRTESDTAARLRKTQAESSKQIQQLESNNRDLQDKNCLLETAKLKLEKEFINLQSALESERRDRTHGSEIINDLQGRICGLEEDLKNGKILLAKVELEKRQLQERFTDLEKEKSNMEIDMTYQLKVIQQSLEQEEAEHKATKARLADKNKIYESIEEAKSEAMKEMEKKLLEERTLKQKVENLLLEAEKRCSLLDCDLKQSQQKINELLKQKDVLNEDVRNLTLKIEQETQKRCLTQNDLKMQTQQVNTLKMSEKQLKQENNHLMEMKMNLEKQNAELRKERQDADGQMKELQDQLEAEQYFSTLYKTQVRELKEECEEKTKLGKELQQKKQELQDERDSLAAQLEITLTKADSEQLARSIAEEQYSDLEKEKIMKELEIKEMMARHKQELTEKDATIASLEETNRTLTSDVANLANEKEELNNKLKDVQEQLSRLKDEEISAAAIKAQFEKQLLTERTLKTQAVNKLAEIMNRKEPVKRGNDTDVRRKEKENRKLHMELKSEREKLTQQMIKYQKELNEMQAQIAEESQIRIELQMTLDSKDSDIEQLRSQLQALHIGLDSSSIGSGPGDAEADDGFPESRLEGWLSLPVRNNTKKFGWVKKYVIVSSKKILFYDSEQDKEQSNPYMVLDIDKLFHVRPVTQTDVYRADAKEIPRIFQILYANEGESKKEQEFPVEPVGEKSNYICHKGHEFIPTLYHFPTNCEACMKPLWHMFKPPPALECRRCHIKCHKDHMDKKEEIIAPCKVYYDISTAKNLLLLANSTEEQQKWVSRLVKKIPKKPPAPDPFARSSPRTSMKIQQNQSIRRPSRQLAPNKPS
For `CCOC(=O)CCC(=O)Nc1ccc2c(=O)[nH]ccc2c1`, the IC50 (usually the point on the concentration scale where inhibition reaches its midpoint) is less than 1000 nM.
The molecule `CC(C)OC(=O)Nc1cc2cc[nH]c(=O)c2cc1Cl` registered an IC50 of less than 1000 nM.
Molecule `O=C(Nc1cc2cc[nH]c(=O)c2cc1Cl)[C@H]1CCCO1` had an IC50 of less than 1000 nM.
With `O=C(Nc1cc2cc[nH]c(=O)c2cc1Cl)[C@@H]1CCCNC1`, the IC50 was less than 1000 nM.
The same measure for `O=C(Nc1cc2cc[nH]c(=O)c2cc1Cl)C1CNCCN1` (centres undefined): less than 1000 nM; for `O=C(CNCC1CCCCC1)Nc1ccc2c(=O)[nH]ccc2c1`: less than 1000 nM.
The same measure for `CC(NCCc1cccs1)C(=O)Nc1cc2cc[nH]c(=O)c2cc1Cl` (centres undefined): less than 1000 nM; for `O=C(Nc1cc2cc[nH]c(=O)c2cc1Cl)c1ccccc1CN1CCOCC1`: less than 1000 nM.
In the case of `N[C@@H](C(=O)Nc1ccc2c(=O)[nH]ccc2c1)C1CCCCC1`, the half-inhibitory concentration (IC50) was less than 1000 nM.
`O=C(Nc1c(Cl)cc2c(=O)[nH]ccc2c1F)[C@H]1CNC[C@@H]1c1ccccc1` showed an IC50 of less than 1000 nM.
Consider `O=C(CNCc1ccccn1)Nc1cc2cc[nH]c(=O)c2cc1Cl`, for which the 50% inhibitory concentration (IC50) was less than 1000 nM.
The same measure for `CN1CCC(C(=O)Nc2cc3cc[nH]c(=O)c3cc2F)CC1`: less than 1000 nM; for `N[C@@H](C(=O)Nc1ccc2c(=O)[nH]ccc2c1)c1ccccc1`: less than 1000 nM; for `O=c1[nH]ccc2cc(NC(=O)[C@H]3CC[C@@H](O)CC3)c(Cl)cc12`: less than 1000 nM.
`O=C(Nc1cc2cc[nH]c(=O)c2cc1Cl)C1CCN(C2CCCCC2)CC1` showed a concentration for half-maximal inhibition (IC50) of less than 1000 nM.
The molecule `CS(=O)(=O)c1ccc(C(=O)Nc2cc3cc[nH]c(=O)c3cc2Cl)c(Cl)c1` returned an IC50 of less than 1000 nM.
The same measure for `O=c1[nH]ccc2cc(NC(=O)[C@H]3CC[C@H](C(=O)O)CC3)c(Cl)cc12`: less than 1000 nM; for `CS(=O)(=O)c1ccc(Cl)c(C(=O)Nc2cc3cc[nH]c(=O)c3cc2Cl)c1`: less than 1000 nM.
The same measure for `O=C(Nc1cc2cc[nH]c(=O)c2cc1Cl)[C@H](O)C1CCCCC1`: less than 1000 nM.
With `O=C(CNCCc1cccs1)Nc1ccc2c(=O)[nH]cnc2c1` the figure was less than 1000 nM; with `O=C(Nc1cc2cc[nH]c(=O)c2cc1Cl)c1cccc(Cl)c1Cl`, less than 1000 nM; with `O=C(Nc1cc2cc[nH]c(=O)c2cc1Cl)[C@H]1CNC[C@@H]1c1cccc(Br)c1`, less than 1000 nM.
For the molecule `N[C@H]1C[C@@H](C(=O)Nc2cc3cc[nH]c(=O)c3cc2Cl)C1`, the IC50 was less than 1000 nM.
With `Cc1ccc([C@@H](N)C(=O)Nc2cc3cc[nH]c(=O)c3cc2Cl)cc1`, the IC50 is less than 1000 nM.
`N[C@@H](CC1CCCCC1)C(=O)Nc1cc2cc[nH]c(=O)c2cc1Cl` had an IC50 of less than 1000 nM.
The same measure for `C[C@@H]1CNCC[C@@H]1C(=O)Nc1cc2cc[nH]c(=O)c2cc1Cl`: less than 1000 nM; for `CC(C)N1CCC(C(=O)Nc2cc3cc[nH]c(=O)c3cc2Cl)CC1`: less than 1000 nM; for `O=C(Nc1cc2cc[nH]c(=O)c2cc1Cl)C1CNCC(c2ccccc2)C1` (centres undefined): less than 1000 nM.
For `O=C(Nc1cc2cc[nH]c(=O)c2cc1Br)[C@H]1CNC[C@@H]1c1ccccc1`, the 50% inhibitory concentration (IC50) is less than 1000 nM.
The same measure for `N[C@H](Cc1ccncc1)C(=O)Nc1cc2cc[nH]c(=O)c2cc1Cl`: less than 1000 nM; for `C[C@](O)(C(=O)Nc1cc2cc[nH]c(=O)c2cc1Cl)c1ccc(Cl)cc1`: less than 1000 nM.
With `O=C(Nc1cc2cc[nH]c(=O)c2cc1Cl)C1CCN(Cc2ccccc2)CC1` the figure was less than 1000 nM; with `O=C(Nc1cc2cc[nH]c(=O)c2cc1Cl)c1ccc(N2CCOCC2)cc1Cl`, less than 1000 nM.
The molecule `O=C(Nc1cc2cc[nH]c(=O)c2cc1Cl)c1c(F)ccc(F)c1F` came in with an IC50 of less than 1000 nM.
With `O=C(Nc1cc2cc[nH]c(=O)c2cc1Cl)[C@@H]1CCCO1` the figure was less than 1000 nM; with `COC(=O)C[C@@H](C)C(=O)Nc1cc2cc[nH]c(=O)c2cc1Cl`, less than 1000 nM; with `N[C@H]1CCC[C@@H](C(=O)Nc2cc3cc[nH]c(=O)c3cc2Cl)C1`, less than 1000 nM.
With `CC(C(=O)Nc1cc2cc[nH]c(=O)c2cc1Cl)N1CCSCC1` (centres undefined) the figure was less than 1000 nM.
With `O=C(CNCc1cccnc1)Nc1cc2cc[nH]c(=O)c2cc1Cl` the figure was less than 1000 nM; with `O=C(Nc1cc2cc[nH]c(=O)c2cc1Cl)[C@H]1[C@@H]2CNC[C@@H]21`, less than 1000 nM.
`CC(C)(C)CC(=O)Nc1cc2cc[nH]c(=O)c2cc1Cl` gave an IC50 of less than 1000 nM.
With `O=C(Nc1ccc2c(=O)[nH]cnc2c1)[C@H]1CCCN1`, the IC50 was less than 1000 nM.
`CO[C@H](C(=O)Nc1cc2cc[nH]c(=O)c2cc1Cl)c1ccccc1` returned an IC50 of less than 1000 nM.
For `N[C@@H](Cc1ccccc1)C(=O)Nc1ccc2c(=O)[nH]cnc2c1`, the IC50 was less than 1000 nM.
`Cc1cc(C(=O)Nc2ccc3c(=O)[nH]cnc3c2)n(C)n1` returned an IC50 of less than 1000 nM.
In the case of `C[C@H](Oc1ccccc1)C(=O)Nc1cc2cc[nH]c(=O)c2cc1Cl`, the IC50 was less than 1000 nM.
With `CC(C)(C)NCC(=O)Nc1cc2cc[nH]c(=O)c2cc1Cl` the figure was less than 1000 nM; with `O=C(Nc1ccc2c(=O)[nH]ccc2c1)c1cc(Cl)sc1Cl`, less than 1000 nM.
The same measure for `N#Cc1ccccc1C(=O)Nc1cc2cc[nH]c(=O)c2cc1Cl`: less than 1000 nM.
With `O=C(Nc1cc2cc[nH]c(=O)c2cc1Cl)c1cccc([N+](=O)[O-])c1Cl` the figure was less than 1000 nM.
`CN1CCN(CC(=O)Nc2cc3cc[nH]c(=O)c3cc2Cl)CC1`: the half-inhibitory concentration (IC50) was less than 1000 nM.
With `O=C(Nc1ccc2c(=O)[nH]ccc2c1)C1CNCC1c1ccc(F)cc1` (centres undefined) the figure was less than 1000 nM; with `O=C(Nc1cc2cc[nH]c(=O)c2cc1Cl)c1ccc([N+](=O)[O-])cc1C(F)(F)F`, less than 1000 nM; with `COc1cc2c(=O)[nH]ccc2cc1NC(=O)[C@@H]1CCC[C@H](N)C1`, less than 1000 nM.
In turn, `Cc1onc(-c2ccccc2)c1C(=O)Nc1cc2cc[nH]c(=O)c2cc1Cl` displayed an IC50 of less than 1000 nM.
`O=C(Nc1cc2cc[nH]c(=O)c2cc1Cl)[C@H]1CNCC[C@@H]1c1ccccc1` registered an IC50 of less than 1000 nM.
As for `O=C(Nc1cc2cc[nH]c(=O)c2cc1Cl)[C@@H](O)c1ccccc1`, the IC50 is less than 1000 nM.
With `O=C(CNCC1CCCCC1)Nc1ccc2c(=O)[nH]cnc2c1` the figure was less than 1000 nM; with `N[C@H](Cc1cccc2ccccc12)C(=O)Nc1cc2cc[nH]c(=O)c2cc1Cl`, less than 1000 nM.
The same measure for `COc1cccc(CC(=O)Nc2ccc3c(=O)[nH]ccc3c2)c1`: less than 1000 nM; for `O=C(Nc1cc2cc[nH]c(=O)c2cc1Cl)c1ccc(Cl)cc1Cl`: less than 1000 nM.
`O=C(Nc1cc2cc[nH]c(=O)c2cc1Cl)[C@H]1CNC[C@@H]1c1ccccc1` gave an IC50 of less than 1000 nM.
As to `COc1cc2c(=O)[nH]ccc2cc1NC(=O)[C@@H](N)C1CCCCC1`, the IC50 is less than 1000 nM.
With `O=C(Nc1ccc2c(=O)[nH]cnc2c1)C1(c2ccc(Cl)cc2)CCCC1` the figure was less than 1000 nM; with `O=C(Nc1ccc2c(=O)[nH]ccc2c1)C1CNCC1c1ccccc1` (centres undefined), less than 1000 nM.
The same measure for `O=C(Nc1cc2nc[nH]c(=O)c2cc1Cl)[C@H]1CNC[C@@H]1c1cccc(Br)c1`: less than 1000 nM; for `COC(C(=O)Nc1cc2cc[nH]c(=O)c2cc1Cl)(c1ccccc1)C(F)(F)F` (centres undefined): less than 1000 nM.
The same measure for `O=C(Nc1cc2cc[nH]c(=O)c2cc1Cl)c1cccc2c1CCNC2`: less than 1000 nM; for `O=C(Nc1cc2cc[nH]c(=O)c2cc1Cl)[C@H]1CNC[C@@H]1c1ccc(Cl)cc1`: less than 1000 nM.

For the origin of these results see the Kinase Knowledgebase extract (Sharma et al. 2016).
